Measurements: article PMC7236970 (Clinical Epigenetics, 2020)
One block for each molecule: values may come before it.

Tests used:
HDAC3 = system: HDAC3; parameters: method as in PMID 18642892; settings: in vitro; read-out: IC50 towards HDAC3; cited from earlier work
K-562 cells [1] = assay: Cyto-ID quantification of autophagic vesicles; type: cell-based, human; settings: K-562, 8 h, Cyto-ID staining
Experimental: For fluorescence microscopy, the Cyto-ID® Autophagy Detection Kit (Enzo Life Science) was used according to the manufacturer’s instructions. […] Green fluorescent autophagy-related organelles (pre-autophagosomes, autophagosomes, and autophagolysosomes) were quantified as green signal area per cell nucleus as advised by the manufacturer. Segmentation of these areas was based on 31 parameters assessing color, texture, and edge and was carried out in Ilastik, version 1.3.0 developed by the European Molecular Biology Laboratory, Heidelberg. Classifiers trained for these parameters on a set of representative images were then applied to batch process multiple images as described in Ilastik’s user manual. Binary masks thus obtained were measured in FIJI [59] after applying a size filter to remove small size artifacts resulting from segmentation.

HDAC6 = system: HDAC6; parameters: method as in PMID 18642892; settings: in vitro; read-out: IC50 towards HDAC6; cited from earlier work
total HDAC = assay: In vitro HDAC activity assay, total HDAC; type: biochemical; settings: for total HDAC activity remaining: 2 μM SAHA or 0.1 μM MAKV-8; for IC50: read-out: IC50 values against total HDAC activity
Experimental: (§1) In vitro HDAC activities were measured as previously described. IC50 values against the various HDAC activities were determined using nonlinear regression in Prism 8.0 software (GraphPad Software, Inc., La Jolla, CA, USA).

K-562 cells [2] = assay: Cell proliferation and viability, Trypan Blue exclusion; type: cell-based, human; settings: for concentration from which cell death was triggered / cell viability decreased / concentration from which cell proliferation was reduced: K-562, 48 h
Experimental: (§4) Cell viability and proliferation were evaluated using the Trypan Blue exclusion method (BioWhittaker ®). Cells were processed using a semi-automated image-based cell analyzer (Cedex XS Innovatis, Roche, Luxembourg, Luxembourg), which provided the cell number as well as cell viability based on the fraction of trypan blue-positive cells.

Acetyl α-tubulin = assay: Western blot of α-tubulin acetylation in K-562 cells; type: cell-based, human; settings: for effect on α-tubulin acetylation (in words): increasing concentrations
Experimental: (§2) Cells were lyzed in 10% (v/v) Mammalian Protein Extraction Reagent solution (MPER®; Thermofisher, Erembodegen, Belgium) supplemented with 1× protease inhibitor cocktail (Complete EDTA-free, Roche) according to the manufacturer’s instructions. Histone enrichment was performed in acidic conditions as previously described. The protein concentration was determined using the Bradford assay (BioRad).

K-562 cells [3] = assay: Cellular ALDH activity (ALDEFLUOR), ALDH+ LSC fraction; type: cell-based, human; settings: K-562, 24 h; for ALDH+ cell percentage: untreated cells 50%
Experimental: Cellular ALDH activity was assessed using the ALDEFLUOR^TM kit (StemCell Technologies Inc.) according to the manufacturer’s procedure. Diethylaminobenzaldehyde, a specific inhibitor of ALDH activity, was used to differentiate cells with low or high ALDH activity.

recombinant HDAC6 = target: T1, recombinant HDAC6 (Homo sapiens, UniProt Q9UBN7); assay: In vitro HDAC activity assay, recombinant HDAC6; type: biochemical; settings: read-out: IC50 recombinant HDAC6 deacetylase activity
T1 sequence (Q9UBN7 1-1215): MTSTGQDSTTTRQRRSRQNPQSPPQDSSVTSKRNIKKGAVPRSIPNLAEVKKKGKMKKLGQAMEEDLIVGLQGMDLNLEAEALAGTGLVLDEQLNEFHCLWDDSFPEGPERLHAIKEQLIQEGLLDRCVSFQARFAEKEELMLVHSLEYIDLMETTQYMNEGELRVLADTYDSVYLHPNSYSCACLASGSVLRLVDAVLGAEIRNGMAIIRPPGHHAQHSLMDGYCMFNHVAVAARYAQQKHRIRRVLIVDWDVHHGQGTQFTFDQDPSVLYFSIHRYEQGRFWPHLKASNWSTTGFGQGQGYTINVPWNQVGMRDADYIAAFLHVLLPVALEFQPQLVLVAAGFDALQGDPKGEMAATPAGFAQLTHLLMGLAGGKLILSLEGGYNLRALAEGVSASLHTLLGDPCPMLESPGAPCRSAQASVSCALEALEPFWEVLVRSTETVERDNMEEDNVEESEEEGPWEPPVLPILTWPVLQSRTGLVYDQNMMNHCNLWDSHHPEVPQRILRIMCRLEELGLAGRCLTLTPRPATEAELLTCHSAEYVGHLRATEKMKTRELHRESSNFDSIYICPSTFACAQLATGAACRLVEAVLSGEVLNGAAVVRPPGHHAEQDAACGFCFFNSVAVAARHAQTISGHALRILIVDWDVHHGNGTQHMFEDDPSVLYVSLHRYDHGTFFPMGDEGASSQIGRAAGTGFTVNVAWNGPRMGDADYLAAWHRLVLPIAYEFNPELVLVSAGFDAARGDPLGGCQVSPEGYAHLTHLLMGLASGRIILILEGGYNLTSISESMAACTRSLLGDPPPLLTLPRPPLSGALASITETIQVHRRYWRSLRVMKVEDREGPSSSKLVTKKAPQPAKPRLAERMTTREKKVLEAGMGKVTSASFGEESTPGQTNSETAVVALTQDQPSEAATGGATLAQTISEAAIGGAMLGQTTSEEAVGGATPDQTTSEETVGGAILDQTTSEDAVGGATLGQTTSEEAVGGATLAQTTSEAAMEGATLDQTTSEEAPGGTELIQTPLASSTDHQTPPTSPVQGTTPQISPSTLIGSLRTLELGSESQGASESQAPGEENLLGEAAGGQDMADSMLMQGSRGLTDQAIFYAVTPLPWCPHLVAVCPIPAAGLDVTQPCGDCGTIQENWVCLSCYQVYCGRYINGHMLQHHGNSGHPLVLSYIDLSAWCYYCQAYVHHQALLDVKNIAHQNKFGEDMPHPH
Experimental: as §1

PBMCs [4] = assay: Healthy cell viability, Trypan Blue exclusion; settings: 48 h
Experimental: (§5) PBMCs were isolated from the blood of healthy adult human donors obtained from the Red Cross (Luxembourg, Luxembourg) and purified as previously reported [43].
as §4

recombinant HDAC1 = recombinant HDAC1 (Homo sapiens, UniProt Q13547); assay: In vitro HDAC activity assay, recombinant HDAC1; type: biochemical; settings: read-out: IC50 recombinant HDAC1 deacetylase activity
Experimental: as §1

[5] = system: K-562 cells xenografted in zebrafish; assay: Zebrafish cancer cell xenograft; type: in vivo; settings: K-562 cells treated 24 h, injected into zebrafish yolk sac, three days post-injection
Experimental: Cancer xenograft assays in zebrafish were performed as previously described using cells stained with 2 μM CM-Dil (Invitrogen) and diluted in 1× PBS supplemented with 1% phenol red sodium salt solution.

MEG-01 cells [6] = assay: Colony formation assay in methylcellulose; type: cell-based, human; settings: MEG-01, 10 days
Experimental: (§3) For colony formation assays, 1000 cells were grown in 1 mL of semi-solid methylcellulose medium (Methocult H4230, StemCell Technologies Inc., Grenoble, France) supplemented with 10% heat-inactivated FCS (BioWhittaker ®) in 12-well plates. Colonies were detected after 10 days of culturing by adding 5 mg/mL 3-(4,5-dimethylthiazol-2-yl)-2,5-diphenyltetrazoliumbromide (MTT) reagent (Sigma-Aldrich) and incubating for 15 min at 37 °C. Pictures were taken with the GelDoc XR+ System (BioRad, Temse, Belgium), and quantifications were conducted using Image J software (US National Institute of Health, Bethesda, MD, USA).

K-562 cells [7] = assay: Colony formation assay in methylcellulose; type: cell-based, human; settings: K-562, 10 days
Experimental: as §3

KBM-5 cells [8] = assay: Colony formation assay in methylcellulose; type: cell-based, human; settings: KBM-5, 10 days
Experimental: as §3

Acetyl histone H4 = assay: Western blot of histone H4 acetylation in K-562 cells; type: cell-based, human; settings: for effect on histone H4 acetylation (in words): increasing concentrations
Experimental: as §2

MEG-01 cells [9] = assay: Cell proliferation and viability, Trypan Blue exclusion; type: cell-based, human
Experimental: as §4

KBM-5 cells [10] = assay: as above; type: cell-based, human
Experimental: as §4

platelets = assay: Platelet viability, flow cytometry after Annexin V staining; type: cell-based, human; settings: 48 h
Experimental: Phosphatidylserine exposure was evaluated using the FITC Annexin V Apoptosis Detection Kit I (BD Biosciences) according to the supplier’s instructions. Stained samples were processed through a cytometer (FACS Calibur, BD Biosciences), and data were recorded statistically (10,000 events/sample) using the CellQuest Pro software (BD, Biosciences). Data were analyzed using the Flow-Jo 8.8.5 software.

RPMI-1788 cells = assay: Healthy cell model viability, nuclear morphology; type: cell-based, human; settings: RPMI-1788, 48 h, 10 μM MAKV-8
Source text: PBMCs were isolated from the blood of healthy adult human donors obtained from the Red Cross (Luxembourg, Luxembourg) and purified as previously reported [43]. […] Platelets from healthy adult human donors were provided by the Red Cross.

PBMCs [11] = system: PBMCs
Experimental: as §5, §4

recombinant HDAC1, sequence (Q13547 whole entry): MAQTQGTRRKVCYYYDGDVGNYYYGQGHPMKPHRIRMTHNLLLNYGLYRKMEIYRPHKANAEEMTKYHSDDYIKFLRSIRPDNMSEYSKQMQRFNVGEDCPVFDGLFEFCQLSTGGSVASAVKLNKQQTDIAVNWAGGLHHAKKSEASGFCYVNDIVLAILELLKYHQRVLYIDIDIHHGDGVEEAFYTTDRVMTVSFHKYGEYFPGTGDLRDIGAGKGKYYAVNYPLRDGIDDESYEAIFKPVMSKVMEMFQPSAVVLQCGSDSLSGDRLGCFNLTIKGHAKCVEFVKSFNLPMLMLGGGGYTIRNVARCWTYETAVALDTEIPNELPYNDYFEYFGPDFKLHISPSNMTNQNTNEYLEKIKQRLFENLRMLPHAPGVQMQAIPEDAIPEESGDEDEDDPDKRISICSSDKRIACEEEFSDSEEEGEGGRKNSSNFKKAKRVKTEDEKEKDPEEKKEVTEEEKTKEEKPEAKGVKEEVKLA

- IC50 (total HDAC; in vitro): 5.8 ± 3.8 nM
- EC50 (Acetyl α-tubulin; Homo sapiens, K562, 24 h, western blot quantification, read-out: EC50 half-maximal acetylation of α-tubulin): 12100 ± 900 nM
- IC50 (recombinant HDAC6): 11.4 nM
- IC50 (recombinant HDAC1): 2.6 nM
- EC50 (Acetyl histone H4; Homo sapiens, K562, 24 h, western blot quantification, read-out: EC50 half-maximal acetylation of histone H4): 5900 ± 1400 nM
Compound: CC(C)(C)OC(=O)Nc1cccc(-c2cc(C(=O)NCCCCCCC(=O)NO)no2)c1 [MAKV-8]
- IC50 (HDAC3): 0.002 nM
- autophagic signal area per nucleus compared to controls (K-562 cells [1]): about 1.5 times
- IC50 (HDAC6): 0.002 nM
- total HDAC activity remaining (total HDAC): about 10%
- potency as pan-HDACi relative to SAHA (total HDAC; in vitro): 10 times
- concentration from which cell death was triggered / cell viability decreased (K-562 cells [2]): ≥ 10 µM
- concentration from which cell growth was inhibited (K-562 cells [2]; K-562, up to 72 h): about 3 μM
- time at which increase in α-tubulin acetylation begins (Acetyl α-tubulin; 15 µM MAKV-8): ≥ 2 h
- concentration from which α-tubulin acetylation was induced (Acetyl α-tubulin; 24 h): ≥ 5 µM
- ALDH+ cell percentage (K-562 cells [3]): 24%
- maximum decrease of viable cells (PBMCs [4]): ≤ 30%
- tumor formation / tumor volume (in words) [5]: unable to significantly reduce tumor volumes
- concentration from which colony formation (replicative ability, 3D model) was strongly reduced (MEG-01 cells [6]): ≥ 5 µM
- concentration from which colony formation (replicative ability, 3D model) was strongly reduced (K-562 cells [7]): ≥ 5 µM
- concentration from which colony formation (replicative ability, 3D model) was strongly reduced (KBM-5 cells [8]): ≥ 10 µM
- time at which increase in histone H4 acetylation begins (Acetyl histone H4; 15 µM MAKV-8): ≥ 2 h
- concentration from which histone H4 acetylation was induced (Acetyl histone H4; 24 h): ≥ 1 µM
- concentration from which cell death was triggered (MEG-01 cells [9]; MEG-01, 48 h): ≥ 10 µM
- concentration from which cell growth was inhibited (MEG-01 cells [9]; MEG-01, up to 72 h): about 3 μM
- concentration from which cell death was triggered (KBM-5 cells [10]; KBM-5, 48 h): ≥ 10 µM
- concentration from which cell growth was inhibited (KBM-5 cells [10]; KBM-5, up to 72 h): about 3 μM
- cytotoxicity in platelets (in words) (platelets): neither alone nor in co-treatments elicited any significant cytotoxicity in platelets
- reduction of living cells (RPMI-1788 cells): about 55%

- IC50 (total HDAC; in vitro): > 100000 nM
Compound: COC(=O)CCCCCCNC(=O)c1cc(-c2cccc(N)c2)on1 [MAKV-12]
- concentration up to which HDAC activities were not inhibited (total HDAC; in vitro): > 100 µM
- effect on cell proliferation and viability (in words) (K-562 cells [2]; K-562, up to 72 h): neither MAKV-10 nor MAKV-12 impacted K-562 cell proliferation and viability
- effect on α-tubulin acetylation (in words) (Acetyl α-tubulin; 24 h): did not augment protein target acetylation levels
- effect on histone H4 acetylation (in words) (Acetyl histone H4; 24 h): did not augment protein target acetylation levels

Compound: O=C(CCCCCCC(=O)Nc1ccccc1)NO [SAHA, suberoylanilide hydroxamic acid, reference compound]
- total HDAC activity remaining (total HDAC): about 10%
- effect on ALDH+ cell proportion (in words) (K-562 cells [3]): failed to reduce the ALDH^+ cell proportion

- IC50 values against total HDAC activities (in words) (total HDAC; in vitro): low micromolar range
- IC50 (total HDAC; in vitro): 1050 ± 220 nM
Compound: CC(C)(C)OC(=O)Nc1cccc(-c2cc(C(=O)NO)no2)c1 [MAKV-6]
- concentration from which cell death was triggered / cell viability decreased (K-562 cells [2]): ≥ 25 µM
- concentration from which cell proliferation was reduced (K-562 cells [2]): ≥ 5 µM
- effect on α-tubulin acetylation (in words) (Acetyl α-tubulin; 24 h): failed to increase α-tubulin acetylation
- effect on histone H4 acetylation (in words) (Acetyl histone H4; 24 h): increased histone H4 acetylation only at the highest concentrations

Compound: Cc1ccc(NC(=O)c2ccc(CN3CCN(C)CC3)cc2)cc1Nc1nccc(-c2cccnc2)n1 [imatinib]
- ALDH+ cell percentage (K-562 cells [3]): 30%
- cell mortality (in words) (PBMCs [11]): failed to trigger any cell mortality

- IC50 values against total HDAC activities (in words) (total HDAC; in vitro): low micromolar range
- IC50 (total HDAC; in vitro): 22000 nM
Compound: CC(C)(C)OC(=O)Nc1ccc(-c2cc(C(=O)NO)no2)cc1 [MAKV-7]
- concentration from which cell death was triggered / cell viability decreased (K-562 cells [2]): ≥ 25 µM
- concentration from which cell proliferation was reduced (K-562 cells [2]): ≥ 10 µM
- effect on α-tubulin acetylation (in words) (Acetyl α-tubulin; 24 h): failed to increase α-tubulin acetylation
- effect on histone H4 acetylation (in words) (Acetyl histone H4; 24 h): increased histone H4 acetylation only at the highest concentrations

- IC50 (total HDAC; in vitro): > 100000 nM
Compound: COC(=O)CCCCCCNC(=O)c1cc(-c2cccc(NC(=O)OC(C)(C)C)c2)on1 [MAKV-10]
- concentration up to which HDAC activities were not inhibited (total HDAC; in vitro): > 100 µM
- effect on cell proliferation and viability (in words) (K-562 cells [2]; K-562, up to 72 h): neither MAKV-10 nor MAKV-12 impacted K-562 cell proliferation and viability
- effect on α-tubulin acetylation (in words) (Acetyl α-tubulin; 24 h): did not augment protein target acetylation levels
- effect on histone H4 acetylation (in words) (Acetyl histone H4; 24 h): did not augment protein target acetylation levels
